Here are results for 5 compounds from article PMC10630452, “The tumor-enriched small molecule gambogic amide suppresses glioma by targeting WDR1-dependent cytoskeleton remodeling” (Signal Transduction and Targeted Therapy, 2023).

One series concerns subcutaneous glioma PDX. As to the kind of experiment: Subcutaneous PDX model of glioma (GBM1). It counts as in vivo, nude mice. As for the experimental part: (§1) Fig. 2 The BBB permeability and tumor suppressor ability of GA-amide compared with TMZ. GA-amide (a) or TMZ (b) concentration in the tumor area and normal brain tissue following a single injection of GA-amide (10 mg/kg, i.v.) or TMZ (10 mg/kg, i.v.). The data are presented as the means ± SEMs (n = 3). c Western blot analysis of the expression of TrkA in mouse tumor tissues (T) and normal brain tissues (N), n = 4. d Western blot analysis of glycosylated TrkA expression in human normal brain tissues (N) and glioma tissues of different grades. e Time curve of GA-amide and TMZ treatment in a cell viability assay (MTS) in T2-4, GSC2 and T12-1 cells. f–h A PDX mouse model was established, and the mice were treated with vehicle (control, n = 9), 2 mg/kg GA-amide (n = 9), 2 mg/kg GAC (n = 9) or […] TMZ (n = 8) by i.p. injection daily for 10 days. A summary photograph is presented in (f), statistical results in (g) and the body weights of mice in (h); the mean ± SEMs are shown. n.s: P ≥ 0.05, *P < 0.05, **P < 0.01 and ***P < 0.001 compared with the control group by one-way ANOVA at each time point
Male nude mice aged 5–6 weeks were selected for establishment of the in vivo glioma mouse models. For the PDX models, the tumor sample will be soaked in HBSS solution on ice and transferred from the hospital to the laboratory. Patient-related information was shown in Supplementary Table 4). For the subcutaneous PDX models, the isometric fresh GBM tumor (GBM1) specimens were implanted s.c. into the flank of a nude mouse. Then, the mice were treated with GA-amide (2 mg/kg i.p.), gambogic acid (2 mg/kg i.p.), TMZ (65 mg/kg i.p., Selleck) or vehicle after the tumors grew to 100 mm^3. The mouse body weights were measured, and tumor volumes were calculated using the formula L × W^2/2. After treatment, the xenografts were harvested and photographed.

For a further series, the system named is GSC2 and U87MG-SLC cells. Nature of the series: Combination of GA-amide with Trk inhibitors, cell viability. It counts as cell-based. As to conditions: 48 hours. As for the experimental part: Supplementary Fig. 5 TrkA was not the functional target for GA-amide to inhibit glioma. a Western blot analyses of the TrkA and p-TrkA expression in GSC2 and U87MG-SLC cells with GA-amide treatment for 4 hours. b Western blot analyses of the p-TrkA expression in GSC2 with GA-amide treatment for different times. c, d The combination effects of GA-amide with GW441756, a TrkA inhibitor, or with K252a, an inhibitor of Trk family in GSC2 (c) and U87MG-SLC (d) (48 hours, n = 3).

For the next series, the system named is F-actin. Nature of the series: F-actin staining and G-actin/F-actin assay in T2-4 cells. In kind it is cell-based. The following applies: 50 nM jas with 0.3 μM GA-amide. On the procedure: F-actin isolation was performed according to the instructions of the G-actin/F-actin assay (Cytoskeleton, Inc.). Briefly, cells were lysed in LAS2 buffer (Cytoskeleton, Inc.). The lysates were centrifuged (5 min at 1000 rpm) to pellet undisrupted cells, and then 100 µl of the supernatant was ultracentrifuged at 37 °C (100,000 × g) for 1 h to separate F-actin from soluble G-actin. The F-actin pellet was solubilized by incubation in 100 μL of F-actin depolymerization buffer for 1 h. The soluble F-actin and G-actin fractions were subsequently analyzed by immunoblotting with a mouse monoclonal anti-actin antibody (Cytoskeleton, Inc.).
Representative images of three wells are shown, and the scale bar represents 500 μm. h The apoptosis assay was conducted on T2-4 cells treated with DMSO, GA-amide (0.3 μM), jas (50 nM), and jas (50 nM jas was pretreated for 12 hours) in combination with GA-amide (0.3 μM) for 4 hours. The data were presented as the mean ± SEM (n = 3) and analyzed using one-way ANOVA analysis. Statistical significance is denoted as *P <0.05, **P <0.01, and ***P <0.001.

Series [1] in a line: BBB permeability assay in U87MG-SLC intracranial xenograft mice. In kind it is in vivo, mouse. As to conditions: 10 mg/kg i.v., U87MG-SLC intracranial xenograft mice. On the procedure: as §1
Mice bearing U87MG-SLC cell intracranial xenografts were injected with GA-amide (i.v.), and tissues from the brain tumor area and normal brain tissues were collected at different times after injection. […] The diagnostic product ions for GA-amide were detected at m/z 628.3/572.2.

[2] abbreviates: 60 mg/kg i.p. daily for 10 days.

Regarding `CC(C)=CCC[C@]1(C)C=Cc2c(O)c3c(c(CC=C(C)C)c2O1)O[C@]12C(=C[C@@H]4C[C@H]1C(C)(C)O[C@@]2(C/C=C(/C)C(=O)O)C4=O)C3=O` [GAC, gambogic acid, reference compound], the “tumor volume versus control” value with subcutaneous glioma PDX (2 mg/kg i.p. daily for 10 days) is given as “significantly decreased compared with those in the control group”.

As to `COC(=O)[C@@]1(O)C[C@H]2O[C@]1(C)n1c3ccccc3c3c4c(c5c6ccccc6n2c5c31)C(=O)NC4` [K252a], the “rescue of the inhibitory effect of GA-amide on GSCs” value with GSC2 and U87MG-SLC cells is “neither the TrkA inhibitor GW441756 nor the Trk family inhibitor K252a[28] restored the inhibitory effect of GA-amide on GSCs”.

As for `C/C1=C\[C@H](C)C[C@H](C)OC(=O)C[C@H](c2ccc(O)cc2)NC(=O)[C@@H](Cc2c(Br)[nH]c3ccccc23)N(C)C(=O)[C@H](C)NC(=O)[C@@H](C)C1` [jasplakinolide, reference compound], the “effect of F-actin stabilization on GA-amide induced F-actin depolymerization, invasion inhibition and apoptosis” value in the series on F-actin was “significantly reversed”.

Take `Cn1nnc2c(C(N)=O)ncn2c1=O` [TMZ, temozolomide, reference compound]: in the series on subcutaneous glioma PDX (setting [2]), the “body weight of mice” value is recorded as “significantly decreased” and the “tumor volume versus control” value was “significantly decreased compared with those in the control group”. For the same compound, the “concentration in the tumor area versus the nontumor area” value in series [1] is “no discernible difference in its distribution between these regions”.

As for `Cn1cc(/C=C2\C(=O)Nc3cccnc32)c2ccccc21` [GW441756], the “rescue of the inhibitory effect of GA-amide on GSCs” value with GSC2 and U87MG-SLC cells was “neither the TrkA inhibitor GW441756 nor the Trk family inhibitor K252a[28] restored the inhibitory effect of GA-amide on GSCs”.
